# Measurements: ChEMBL document CHEMBL6127064, “Discovery of GNE-6893, a Potent, Selective, Orally Bioavailable Small Molecule Inhibitor of HPK1” (ACS Med Chem Lett, 2024)
# Columns and labels:
# [1] = Inhibition of human full length HPK1-T165E/S171E mutant expressed in baculovirus expression system assessed as inhibition of SLP76 phosphorylation using biotinylated SLP76 as substrate preincubated for 30 mins followed by incubation with substrate in presence of ATP and measured for 60 mins by HTRF assay
# [2] = Clearance in Sprague-Dawley rat at 0.5 mg/kg, iv measured for 8 hrs by LC-MS/MS analysis; type: ADME, organism-based; settings: in vivo
# [3] = Volume of distribution at steady state in C57BL/6 mouse at 25 mg/kg, po or 1 mg/kg, iv measured for 24 hrs by LC-MS/MS analysis; type: ADME, organism-based; settings: in vivo
# [4] = Half life in Sprague-Dawley rat at 0.5 mg/kg, iv measured for 8 hrs by LC-MS/MS analysis; type: ADME, organism-based; settings: in vivo
# [5] = Apparent permeability of the compound across apical to basolateral side in dog MDCK1 cells at 10 uM by LC-MS/MS analysis; type: ADME, cell-based, Canis lupus familiaris; settings: MDCK
# [6] = Oral bioavailability in Sprague-Dawley rat; type: ADME, organism-based; settings: in vivo
# [7] = Kinetic solubility of the compound in PBS at pH 7.4; type: physicochemical; settings: read-out: Kinetic_solubility
# [8] = Half life in C57BL/6 mouse at 25 mg/kg, po or 1 mg/kg, iv measured for 24 hrs by LC-MS/MS analysis; type: ADME, organism-based; settings: in vivo
# [9] = Volume of distribution at steady state in Sprague-Dawley rat at 0.5 mg/kg, iv measured for 8 hrs by LC-MS/MS analysis; type: ADME, organism-based; settings: in vivo, read-out: Vdss
# [10] = target: T1, Mitogen-activated protein kinase kinase kinase kinase 1 (Homo sapiens, UniProt Q92918); assay: Inhibition of HPK1 in primary human Pan T cells assessed as increase in IL-2 secretion pretreated for 30 mins followed by incubation with anti-CD3/anti-CD28 and measured after 4 hrs by MSD assay relative to control; type: cell-based; settings: T cell, time 4.5 hrs
# Target sequence in this assay (Q92918 whole entry, looked up): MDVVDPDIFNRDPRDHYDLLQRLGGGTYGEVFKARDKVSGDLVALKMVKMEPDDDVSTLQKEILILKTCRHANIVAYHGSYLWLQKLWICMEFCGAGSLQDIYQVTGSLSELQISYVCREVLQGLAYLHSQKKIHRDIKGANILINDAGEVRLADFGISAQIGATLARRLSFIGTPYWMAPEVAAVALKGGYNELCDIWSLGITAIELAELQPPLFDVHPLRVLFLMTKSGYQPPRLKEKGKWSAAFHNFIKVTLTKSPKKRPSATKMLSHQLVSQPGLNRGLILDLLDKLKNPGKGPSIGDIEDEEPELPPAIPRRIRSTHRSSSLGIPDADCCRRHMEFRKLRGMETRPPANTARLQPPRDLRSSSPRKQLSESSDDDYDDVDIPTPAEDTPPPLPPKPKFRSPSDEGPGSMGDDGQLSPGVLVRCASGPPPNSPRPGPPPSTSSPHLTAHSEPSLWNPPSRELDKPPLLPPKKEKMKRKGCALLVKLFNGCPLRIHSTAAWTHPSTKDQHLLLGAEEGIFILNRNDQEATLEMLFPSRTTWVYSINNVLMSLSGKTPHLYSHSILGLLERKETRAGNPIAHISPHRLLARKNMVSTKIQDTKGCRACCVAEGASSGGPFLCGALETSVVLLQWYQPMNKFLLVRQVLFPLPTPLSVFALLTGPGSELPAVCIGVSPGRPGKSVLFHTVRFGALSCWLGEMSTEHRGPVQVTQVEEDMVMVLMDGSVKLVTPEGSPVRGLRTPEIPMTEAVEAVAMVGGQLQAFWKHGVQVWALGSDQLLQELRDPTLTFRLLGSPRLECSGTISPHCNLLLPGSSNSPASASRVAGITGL
# [11] = Protein binding in mouse plasma; type: ADME, cell-free; settings: read-out: PPB (converted)
# [12] = Volume of distribution at steady state in cynomolgus monkey at 0.5 mg/kg, po or 0.5 mg/kg, iv measured for 24 hrs by LC/MS/MS analysis; type: ADME, organism-based, Macaca fascicularis; settings: in vivo
# [13] = target: T1, Mitogen-activated protein kinase kinase kinase kinase 1; assay: Inhibition of HPK1 in primary human Pan T cells assessed as increase in IL-2 secretion pretreated for 30 mins followed by incubation with anti-CD3/anti-CD28 and measured after 4 hrs by MSD assay; type: cell-based, T cell
# Target sequence in this assay (Q92918 whole entry): as the sequence (Q92918 whole entry, looked up) above
# [14] = target: Voltage-dependent L-type calcium channel subunit alpha-1C (Homo sapiens, UniProt Q13936); assay: Inhibition of Cav1.2 (unknown origin)
# [15] = target: T1, Mitogen-activated protein kinase kinase kinase kinase 1; assay: Inhibition of HPK1 in human Jurkat cells assessed as inhibition of anti-CD3/anti-CD28-induced SLP76 phosporylation at Ser376 residue incubated for 30 mins by ELISA; type: cell-based
# Target sequence in this assay (Q92918 whole entry): as the sequence (Q92918 whole entry, looked up) above
# [16] = Selectivity ratio of IC50 for inhibition of TNIK (unknown origin) to Ki for inhibition of human full length HPK1-T165E/S171E mutant expressed in baculovirus expression system
# Homo sapiens = species: Homo sapiens; assay: Inhibition of benzodiazepine receptor (unknown origin) at 10 uM
# [17] = Selectivity ratio of IC50 for inhibition of MAP4K4 (unknown origin) to Ki for inhibition of human full length HPK1-T165E/S171E mutant expressed in baculovirus expression system
# [18] = target: Sodium channel protein type 5 subunit alpha (Homo sapiens, UniProt Q14524); assay: Inhibition of Nav1.5 (unknown origin)
# [19] = Selectivity ratio of IC50 for inhibition of GCK (unknown origin) to Ki for inhibition of human full length HPK1-T165E/S171E mutant expressed in baculovirus expression system
# Aurora kinase B = Aurora kinase B (Homo sapiens, UniProt Q96GD4); assay: Inhibition of Aurora kinase B (unknown origin)
# [20] = target: T2, Mitogen-activated protein kinase kinase kinase kinase 2 (Homo sapiens, UniProt Q12851); assay: Inhibition of GCK (unknown origin)
# T2 sequence (Q12851 whole entry): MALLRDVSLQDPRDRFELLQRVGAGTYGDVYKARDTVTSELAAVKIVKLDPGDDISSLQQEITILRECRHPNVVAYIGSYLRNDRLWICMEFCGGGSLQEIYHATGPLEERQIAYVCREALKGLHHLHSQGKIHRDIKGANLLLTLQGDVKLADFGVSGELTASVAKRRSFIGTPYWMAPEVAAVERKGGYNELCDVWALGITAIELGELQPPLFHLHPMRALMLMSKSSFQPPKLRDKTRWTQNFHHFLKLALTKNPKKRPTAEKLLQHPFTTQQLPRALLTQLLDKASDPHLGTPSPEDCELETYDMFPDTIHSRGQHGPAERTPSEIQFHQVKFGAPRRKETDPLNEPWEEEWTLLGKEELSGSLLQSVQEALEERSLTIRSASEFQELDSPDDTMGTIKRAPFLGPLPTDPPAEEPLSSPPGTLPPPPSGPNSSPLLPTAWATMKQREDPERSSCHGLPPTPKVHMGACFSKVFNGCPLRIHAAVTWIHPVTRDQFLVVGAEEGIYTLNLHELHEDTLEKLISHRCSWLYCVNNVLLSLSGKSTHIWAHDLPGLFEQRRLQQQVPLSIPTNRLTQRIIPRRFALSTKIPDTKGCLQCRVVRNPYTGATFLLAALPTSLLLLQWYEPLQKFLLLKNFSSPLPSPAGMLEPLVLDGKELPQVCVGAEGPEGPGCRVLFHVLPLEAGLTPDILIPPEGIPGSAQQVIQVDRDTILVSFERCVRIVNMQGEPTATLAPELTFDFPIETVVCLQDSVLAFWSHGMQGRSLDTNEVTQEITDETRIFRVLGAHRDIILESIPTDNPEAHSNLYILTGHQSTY
# [21] = target: Voltage-gated inwardly rectifying potassium channel KCNH2 (Homo sapiens, UniProt Q12809); assay: Inhibition of hERG; type: toxicity
# [22] = target: Leucine-rich repeat serine/threonine-protein kinase 2 (Homo sapiens, UniProt Q5S007); assay: Inhibition of LRRK2 (unknown origin)
# Hepatocyte = assay: Cytotoxicity against human primary hepatocytes upto 100 uM; type: toxicity, cell-based
# [23] = Protein binding in dog plasma; type: ADME, cell-free, Canis lupus familiaris; settings: read-out: PPB (converted)
# [24] = Cytotoxicity against human liver-microtissues upto 100 uM; type: toxicity, tissue-based
# [25] = target: TRAF2 and NCK-interacting protein kinase (Homo sapiens, UniProt Q9UKE5); assay: Inhibition of TNIK (unknown origin)
# [26] = target: Mitogen-activated protein kinase kinase kinase kinase 4 (Homo sapiens, UniProt O95819); assay: Inhibition of MAP4K4 (unknown origin)
# [27] = target: Sodium-dependent serotonin transporter (Homo sapiens) (UniProt P31645); assay: Inhibition of 5-HTT (unknown origin) at 10 uM
# [28] = Volume of distribution at steady state in Beagle dog at 0.5 mg/kg, po or 0.5 mg/kg, iv measured for 24 hrs by LC/MS/MS analysis; type: ADME, organism-based, Canis lupus familiaris; settings: in vivo
# [29] = target: T3, D(4) dopamine receptor (Homo sapiens) (UniProt P21917); assay: Inhibition of dopamine D4 receptor (unknown origin) at 10 uM
# T3 sequence (whole entry): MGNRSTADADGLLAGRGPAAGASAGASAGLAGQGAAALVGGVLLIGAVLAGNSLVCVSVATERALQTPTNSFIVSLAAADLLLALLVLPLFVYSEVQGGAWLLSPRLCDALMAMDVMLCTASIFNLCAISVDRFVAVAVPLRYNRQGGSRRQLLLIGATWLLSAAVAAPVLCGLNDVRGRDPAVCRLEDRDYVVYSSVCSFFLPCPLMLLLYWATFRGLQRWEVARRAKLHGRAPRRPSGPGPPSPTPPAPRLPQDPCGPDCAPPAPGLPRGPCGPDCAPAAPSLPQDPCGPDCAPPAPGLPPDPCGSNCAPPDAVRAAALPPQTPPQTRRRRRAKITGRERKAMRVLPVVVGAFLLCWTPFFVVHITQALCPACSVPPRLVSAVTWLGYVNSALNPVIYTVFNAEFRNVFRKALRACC
# [30] = Half life in Beagle dog at 0.5 mg/kg, po or 0.5 mg/kg, iv measured for 24 hrs by LC/MS/MS analysis; type: ADME, organism-based, Canis lupus familiaris; settings: in vivo
# [31] = Oral bioavailability in cynomolgus monkey at 0.5 mg/kg measured for 24 hrs by LC/MS/MS analysis; type: ADME, organism-based, Macaca fascicularis; settings: in vivo
# [32] = Selectivity ratio of IC50 for inhibition of KHS1 (unknown origin) to Ki for inhibition of human full length HPK1-T165E/S171E mutant expressed in baculovirus expression system
# [33] = Oral bioavailability in C57BL/6 mouse at 25 mg/kg measured for 24 hrs by LC-MS/MS analysis; type: ADME, organism-based; settings: C57BL/6, mouse, in vivo
# [34] = Oral bioavailability in Beagle dog at 0.5 mg/kg measured for 24 hrs by LC/MS/MS analysis; type: ADME, organism-based, Canis lupus familiaris; settings: in vivo
# Misshapen-like kinase 1 = Misshapen-like kinase 1 (Homo sapiens, UniProt Q8N4C8); assay: Inhibition of MINK1 (unknown origin)
# [35] = Selectivity ratio of IC50 for inhibition of GLK (unknown origin) to Ki for inhibition of human full length HPK1-T165E/S171E mutant expressed in baculovirus expression system
# [36] = Protein binding in rat plasma; type: ADME, cell-free; settings: read-out: PPB (converted)
# [37] = Selectivity ratio of IC50 for inhibition of MINK1 (unknown origin) to Ki for inhibition of human full length HPK1-T165E/S171E mutant expressed in baculovirus expression system
# [38] = Protein binding in cynomolgus monkey plasma; type: ADME, cell-free, Macaca fascicularis; settings: read-out: PPB (converted)
# [39] = target: T4, Mitogen-activated protein kinase kinase kinase kinase 3 (Homo sapiens, UniProt Q8IVH8); assay: Inhibition of GLK (unknown origin)
# T4 sequence (Q8IVH8 whole entry): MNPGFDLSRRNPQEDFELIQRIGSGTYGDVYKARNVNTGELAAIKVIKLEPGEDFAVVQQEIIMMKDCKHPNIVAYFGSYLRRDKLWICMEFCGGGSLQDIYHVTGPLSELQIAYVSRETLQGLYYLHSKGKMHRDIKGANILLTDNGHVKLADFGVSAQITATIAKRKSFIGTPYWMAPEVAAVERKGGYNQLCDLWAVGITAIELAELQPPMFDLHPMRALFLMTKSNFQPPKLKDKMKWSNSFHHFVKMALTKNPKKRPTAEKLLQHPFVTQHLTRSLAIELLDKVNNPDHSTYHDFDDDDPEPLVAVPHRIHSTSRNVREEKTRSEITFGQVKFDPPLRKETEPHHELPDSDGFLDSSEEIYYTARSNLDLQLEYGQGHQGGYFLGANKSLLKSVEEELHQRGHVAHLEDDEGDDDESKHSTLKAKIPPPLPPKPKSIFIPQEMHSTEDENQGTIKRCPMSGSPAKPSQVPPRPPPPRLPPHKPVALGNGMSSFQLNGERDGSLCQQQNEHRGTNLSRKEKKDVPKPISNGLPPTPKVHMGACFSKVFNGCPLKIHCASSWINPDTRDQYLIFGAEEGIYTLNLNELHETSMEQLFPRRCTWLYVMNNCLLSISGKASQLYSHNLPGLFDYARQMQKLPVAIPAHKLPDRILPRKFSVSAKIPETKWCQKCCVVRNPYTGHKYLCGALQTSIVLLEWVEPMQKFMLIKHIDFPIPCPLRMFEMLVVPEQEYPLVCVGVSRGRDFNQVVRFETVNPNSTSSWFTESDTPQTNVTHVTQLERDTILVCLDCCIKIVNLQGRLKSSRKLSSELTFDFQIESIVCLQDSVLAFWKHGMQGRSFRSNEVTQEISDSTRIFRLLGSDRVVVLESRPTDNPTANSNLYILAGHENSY
# [40] = Inhibition of KHS1 (unknown origin); set-up: species or system Homo sapiens
# [41] = Half life in cynomolgus monkey at 0.5 mg/kg, po or 0.5 mg/kg, iv by measured for 24 hrs LC/MS/MS analysis; type: ADME, organism-based, Macaca fascicularis; settings: in vivo
# Sequence of Mitogen-activated protein kinase kinase kinase kinase 4 (O95819 whole entry): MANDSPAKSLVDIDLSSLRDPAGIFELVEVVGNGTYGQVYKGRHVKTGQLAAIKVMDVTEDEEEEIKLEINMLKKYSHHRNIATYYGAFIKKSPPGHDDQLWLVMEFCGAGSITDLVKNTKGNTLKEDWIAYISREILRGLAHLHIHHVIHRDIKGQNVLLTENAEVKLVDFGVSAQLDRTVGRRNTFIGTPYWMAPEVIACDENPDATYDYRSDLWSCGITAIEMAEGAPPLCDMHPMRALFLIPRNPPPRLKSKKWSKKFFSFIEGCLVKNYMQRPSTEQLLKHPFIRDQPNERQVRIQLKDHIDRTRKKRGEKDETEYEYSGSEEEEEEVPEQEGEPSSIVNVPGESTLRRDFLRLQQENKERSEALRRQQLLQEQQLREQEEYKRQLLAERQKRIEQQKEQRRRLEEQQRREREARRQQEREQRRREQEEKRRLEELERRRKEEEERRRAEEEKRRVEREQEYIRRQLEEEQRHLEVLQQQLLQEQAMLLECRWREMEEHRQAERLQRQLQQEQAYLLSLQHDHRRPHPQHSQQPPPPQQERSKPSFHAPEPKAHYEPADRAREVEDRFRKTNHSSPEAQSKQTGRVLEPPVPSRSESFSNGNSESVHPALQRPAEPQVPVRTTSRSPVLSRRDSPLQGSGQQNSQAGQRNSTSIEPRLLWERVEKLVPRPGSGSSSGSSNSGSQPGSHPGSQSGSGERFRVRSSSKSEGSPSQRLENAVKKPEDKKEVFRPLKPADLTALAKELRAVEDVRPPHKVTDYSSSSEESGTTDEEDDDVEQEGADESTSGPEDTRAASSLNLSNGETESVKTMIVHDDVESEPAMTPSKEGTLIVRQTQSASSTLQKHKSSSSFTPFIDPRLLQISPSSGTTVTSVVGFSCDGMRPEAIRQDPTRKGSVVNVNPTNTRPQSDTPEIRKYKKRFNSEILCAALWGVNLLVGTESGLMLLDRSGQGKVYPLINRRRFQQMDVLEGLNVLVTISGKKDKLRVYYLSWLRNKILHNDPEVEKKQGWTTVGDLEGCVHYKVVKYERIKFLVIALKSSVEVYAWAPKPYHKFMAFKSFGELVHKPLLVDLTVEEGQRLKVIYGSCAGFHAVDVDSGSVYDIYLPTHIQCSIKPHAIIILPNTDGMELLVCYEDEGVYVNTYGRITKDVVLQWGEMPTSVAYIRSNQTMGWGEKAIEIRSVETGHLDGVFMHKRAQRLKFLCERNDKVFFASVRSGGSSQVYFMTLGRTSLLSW
# Sequence of Voltage-dependent L-type calcium channel subunit alpha-1C (Q13936 whole entry): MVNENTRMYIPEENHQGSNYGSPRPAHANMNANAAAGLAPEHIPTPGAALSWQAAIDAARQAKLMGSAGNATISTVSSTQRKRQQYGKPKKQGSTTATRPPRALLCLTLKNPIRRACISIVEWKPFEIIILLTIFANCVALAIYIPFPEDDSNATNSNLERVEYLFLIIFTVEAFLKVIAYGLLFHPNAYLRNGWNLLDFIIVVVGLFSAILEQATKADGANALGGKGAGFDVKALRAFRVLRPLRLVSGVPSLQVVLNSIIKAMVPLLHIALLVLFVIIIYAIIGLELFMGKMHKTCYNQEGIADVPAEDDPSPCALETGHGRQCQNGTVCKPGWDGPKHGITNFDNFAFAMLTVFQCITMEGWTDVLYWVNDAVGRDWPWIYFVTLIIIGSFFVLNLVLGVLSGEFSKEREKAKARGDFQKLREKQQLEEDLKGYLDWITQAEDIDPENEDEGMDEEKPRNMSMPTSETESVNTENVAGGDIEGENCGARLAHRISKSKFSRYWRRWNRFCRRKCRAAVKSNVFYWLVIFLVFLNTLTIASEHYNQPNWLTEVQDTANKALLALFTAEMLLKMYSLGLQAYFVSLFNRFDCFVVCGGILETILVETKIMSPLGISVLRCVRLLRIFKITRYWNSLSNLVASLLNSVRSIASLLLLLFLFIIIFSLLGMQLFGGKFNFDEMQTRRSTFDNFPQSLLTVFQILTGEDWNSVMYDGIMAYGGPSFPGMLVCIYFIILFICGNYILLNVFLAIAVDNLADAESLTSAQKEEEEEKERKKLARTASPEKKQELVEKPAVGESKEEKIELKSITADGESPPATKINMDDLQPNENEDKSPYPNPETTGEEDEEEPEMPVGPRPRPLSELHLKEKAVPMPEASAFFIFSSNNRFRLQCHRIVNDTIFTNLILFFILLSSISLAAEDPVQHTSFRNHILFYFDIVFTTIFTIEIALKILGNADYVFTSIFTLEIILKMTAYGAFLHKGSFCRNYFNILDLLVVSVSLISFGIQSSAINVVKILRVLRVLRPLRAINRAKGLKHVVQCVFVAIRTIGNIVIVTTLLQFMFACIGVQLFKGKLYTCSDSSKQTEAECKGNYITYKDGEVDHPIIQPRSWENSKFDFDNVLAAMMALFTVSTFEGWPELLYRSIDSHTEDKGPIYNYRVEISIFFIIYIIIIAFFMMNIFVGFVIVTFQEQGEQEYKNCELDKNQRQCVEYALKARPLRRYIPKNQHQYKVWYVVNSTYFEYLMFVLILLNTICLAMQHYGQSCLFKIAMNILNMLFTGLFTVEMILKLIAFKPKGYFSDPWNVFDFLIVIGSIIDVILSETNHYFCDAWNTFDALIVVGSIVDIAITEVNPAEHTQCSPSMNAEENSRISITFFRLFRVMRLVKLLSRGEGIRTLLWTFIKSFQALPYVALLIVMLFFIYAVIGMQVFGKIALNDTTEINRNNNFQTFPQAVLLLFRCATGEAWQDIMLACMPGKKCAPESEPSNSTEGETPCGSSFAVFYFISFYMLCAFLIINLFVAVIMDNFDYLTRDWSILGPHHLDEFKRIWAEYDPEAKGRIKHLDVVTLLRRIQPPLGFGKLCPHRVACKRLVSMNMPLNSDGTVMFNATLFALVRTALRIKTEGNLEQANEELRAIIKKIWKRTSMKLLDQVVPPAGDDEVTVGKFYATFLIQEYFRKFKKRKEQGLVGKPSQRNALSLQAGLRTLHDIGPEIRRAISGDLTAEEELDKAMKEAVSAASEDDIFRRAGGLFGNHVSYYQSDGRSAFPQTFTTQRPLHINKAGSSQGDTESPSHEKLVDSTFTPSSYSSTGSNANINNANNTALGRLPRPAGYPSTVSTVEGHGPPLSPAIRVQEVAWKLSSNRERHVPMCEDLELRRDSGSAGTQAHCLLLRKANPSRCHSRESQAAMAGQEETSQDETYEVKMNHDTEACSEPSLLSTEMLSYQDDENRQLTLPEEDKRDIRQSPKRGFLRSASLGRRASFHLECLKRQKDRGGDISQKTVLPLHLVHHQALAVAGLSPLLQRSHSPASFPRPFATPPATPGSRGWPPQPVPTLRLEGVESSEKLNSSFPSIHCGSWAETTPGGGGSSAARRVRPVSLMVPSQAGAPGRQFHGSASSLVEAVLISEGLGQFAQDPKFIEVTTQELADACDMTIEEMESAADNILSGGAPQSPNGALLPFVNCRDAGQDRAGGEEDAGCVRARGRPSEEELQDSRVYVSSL
# Sequence of Sodium-dependent serotonin transporter (Homo sapiens) (P31645 whole entry, looked up): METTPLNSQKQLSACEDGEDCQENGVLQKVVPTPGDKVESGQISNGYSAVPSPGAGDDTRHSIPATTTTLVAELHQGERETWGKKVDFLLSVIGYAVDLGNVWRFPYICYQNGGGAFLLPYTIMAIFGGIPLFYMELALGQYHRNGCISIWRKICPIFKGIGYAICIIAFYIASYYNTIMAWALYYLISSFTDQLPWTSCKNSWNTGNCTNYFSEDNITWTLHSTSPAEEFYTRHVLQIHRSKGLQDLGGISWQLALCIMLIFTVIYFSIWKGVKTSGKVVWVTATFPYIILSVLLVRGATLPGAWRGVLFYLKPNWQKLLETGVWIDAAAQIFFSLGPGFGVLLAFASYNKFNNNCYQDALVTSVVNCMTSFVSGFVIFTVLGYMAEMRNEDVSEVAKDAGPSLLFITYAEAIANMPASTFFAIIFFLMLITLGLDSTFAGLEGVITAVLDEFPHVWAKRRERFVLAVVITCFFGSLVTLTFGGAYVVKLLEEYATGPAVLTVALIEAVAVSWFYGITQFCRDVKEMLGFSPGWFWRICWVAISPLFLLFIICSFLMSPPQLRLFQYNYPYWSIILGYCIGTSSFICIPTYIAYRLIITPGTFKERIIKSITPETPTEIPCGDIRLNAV
structure (smiles),measurement,setting,value
Cc1ccncc1-c1cc2cc(Nc3cc4n(n3)CC(=O)N(C)CC4)ncc2c(N)c1F,Ki,[1],0.16 nM
Cc1c(N)cncc1-c1cc2cc(NC(=O)OC3CCOCC3)ncc2c(N)c1F,clearance,[2],38 mL/min/kg
same,Vdss,[3],1.7 L/kg
same,Ki,[1],0.498 nM
same,half-life,[4],1.2 h
same,Papp A→B at 10 µM,[5],15 ×10⁻⁶ cm/s
same,bioavailability,[6],94%
same,solubility kinetic,[7],13 µM
same,half-life,[8],1.3 h
same,Vd,[9],3.2 L/kg
Cc1ccncc1-c1cc(N)c2cnc(NC(=O)[C@@H]3C[C@H]3C#N)cc2c1,Ki,[1],4.9 nM
same,fold change (FC),[10],5
Cc1c(-c2cc3cc(NC(=O)O[C@H]4COC[C@@H]4C)ncc3c(N)c2F)cnc2c1NCCO2,fraction unbound,[11],0.053
same,Vdss,[12],1.9 L/kg
same,EC50,[13],6.4 nM
same,IC50,[14],> 10000 nM
same,IC50,[15],44 nM
same,Ratio,[16],> 120
same,inhibition,Homo sapiens,50%
same,Ratio,[17],> 180
same,IC50,[18],> 10000 nM
same,Ratio,[19],> 69
same,clearance,[2],39 mL/min/kg
same,IC50,Aurora kinase B,46 nM
same,IC50,[20],1.3 nM
same,IC50,[21],28000 nM
same,Vdss,[3],1.8 L/kg
same,Ki,[1],< 0.019 nM
same,IC50,[22],31 nM
same,Activity,Hepatocyte,Non-Toxic
same,fraction unbound,[23],0.142
same,half-life,[4],1.3 h
same,Activity,[24],Non-Toxic
same,IC50,[25],2.3 nM
same,Papp A→B at 10 µM,[5],15 ×10⁻⁶ cm/s
same,IC50,[26],3.3 nM
same,inhibition,[27],50%
same,Vdss,[28],2.2 L/kg
same,inhibition,[29],50%
same,half-life,[30],2.5 h
same,bioavailability,[6],30%
same,bioavailability,[31],53%
same,Ratio,[32],> 170
same,bioavailability,[33],37%
same,bioavailability,[34],46%
same,IC50,Misshapen-like kinase 1,3.6 nM
same,Ratio,[35],> 40
same,fraction unbound,[36],0.094
same,Ratio,[37],> 200
same,half-life,[8],1.7 h
same,fraction unbound,[38],0.116
same,IC50,[39],0.72 nM
same,IC50,[40],3.1 nM
same,half-life,[41],1.9 h
same,Vd,[9],2.2 L/kg
